Source: patent publication US8206732B2, “Pyrithione biocides enhanced by silver, copper, or zinc ions” (Arch Chemicals, Inc., priority 1999, dated 2012)

Tests used:
[1] = test system: Fusarium sp. free-living cells; test: Viable free-living cells in bulk metalworking fluid (Example 5); assay type: cell-based; settings: 100 PPM NaPT, 10 PPM Zn (II) or both, 4 days after treatment
Description: (§1) Experiments were conducted to investigate the efficacy of the composition of the present invention to inhibit the survival, growth, and proliferation of free-living and biofilm populations of bacteria and fungi in metalworking fluids. […] Metalworking fluids (MWF) employed included 5% soluble oil MWF, 5% semi-synthetic MWF, or 5% synthetic MWS. For testing against bacteria, metalworking fluids were supplemented with 2% (weight-to-weight ratio (w:w)) of 5 g/L yeast extract (Difco), Metalworking fluids were supplemented with 2% (weight-to-weight (w:w)) of Tryptic Soy Broth (Difco) for fungal tests.
(§2) For each experiment, three ml of a 5% metalworking fluid was added to each of twelve, sterile, 16 mm×150 mm glass culture tubes. […] Fusarium sp. was added to the tubes to final concentrations of 10^5 spores/ml for the fungal tests. Tubes incubated for 3 days at 28° C. and 180 rpms.
(§3) After the treatments additions were performed, the culture tubes resumed incubation at 28° C., 180 rpms for an additional 4 days.
(§4) After 4 days, culture tubes were removed from the incubator and viable counts of organisms from the bulk MWF fluid and the biofilm were determined using serial dilution and drop plating techniques. For biofilms, polycarbonate discs were removed from tubes, dip-rinsed in three successive washes of de-ionized water to remove loosely attached cells, and transferred to 25 mm×150 mm culture tubes containing 10 ml of sterile, de-ionized water. Biofilms were removed from discs and resuspended by vortexing tubes for 30 seconds. Bacteria were plated on to R2A Agar plates and incubated at 37° C. Fungi were plated onto Malt Agar plates and incubated at 28° C. Mean colony forming units per ml (for bulk) and per square cm (cm^2) biofilm were determined for each experimental treatment.

[2] = test system: E. coli 8739 free-living cells; test: as above; assay type: cell-based, Escherichia coli; settings: 100 PPM NaPT, 10 PPM Zn (II) or both, 4 days after treatment
[3] = test system: Pseudomonas aeruginosa ATCC 9027; test: MIC in Tryptic Soy Broth, microtiter (Example 1); assay type: cell-based; settings: 28° C.
[4] = test system: Fusarium sp. biofilm; test: Viable biofilm cells on discs in metalworking fluid (Example 5); assay type: cell-based; settings: polycarbonate disc, 100 PPM NaPT, 10 PPM Zn (II) or both, 4 days after treatment
Description: as §1, §2, §3, §4

[5] = test system: Escherichia coli ATCC 10536; test: Zone of inhibition test (paper disc on TSA); assay type: cell-based; settings: 6.5 mm discs; 0.135% pyrithione, 0.1% ZnCl2 or both; 28° C., 24 hr
[6] = test system: Cephalosporium sp.; test: MIC in Tryptic Soy Broth, microtiter (Example 1); assay type: cell-based; settings: 28° C.
[7] = test system: Pityrosporum ovale 1452; test: Checkerboard MIC test, pyrithiones with silver salts; assay type: cell-based; settings: NaPT alone or in the inhibitory mixture with silver salt; Ushijima Medium pH 5.5, 35° C., 1 to 2 days
[8] = test system: Pseudomonas aeruginosa NCIMB 6749; test: Checkerboard MIC test, pyrithiones with zinc salts; assay type: cell-based; settings: pyrithione alone or pyrithione concentration in the inhibitory mixture; TSB, 28 C, 3 days

In the case of `[Na+].[O-][n+]1ccccc1[S-]` [NaPT, sodium pyrithione], the viable free-living microorganisms ([1]; 5% semisynth. MWF) was 2.8 × 10^5 cells/ml, the viable free-living microorganisms ([1]; 5% solub. oil MWF) was 4.2 × 10^6 cells/ml and the viable free-living microorganisms ([1]; 5% synthetic MWF) was 6.0 × 10^6 cells/ml. The viable free-living microorganisms ([1]; 100% TSB) was 0 cells/ml, the viable free-living microorganisms ([2]; 5% solub. oil MWF) was 5.3 × 10^7 cells/ml and the viable free-living microorganisms ([2]; 10% TSB) was 9.1 × 10^8 cells/ml. For the same molecule, the “MIC NaPT (with 0.5 ppm Cu)” value ([3]; TSB with 0.5 ppm Cu (II), 5-6 days) was 256 ppm, the MIC ([3]; TSB, incubated 5-6 days, single agent (NaPT without Cu)) was 256 ppm and the viable biofilm microorganisms ([4]; 5% semisynth. MWF) was 18 cells/cm^2. For the same molecule, the viable biofilm microorganisms ([4]; 5% solub. oil MWF) was 4.6 × 10^5 cells/cm^2, the viable biofilm microorganisms ([4]; 5% synthetic MWF) was 7.3 × 10^4 cells/cm^2 and the viable biofilm microorganisms ([4]; 100% TSB) was 96 cells/cm^2. For the same molecule, the “Zone of Inhibition” value [5] was 35 mm, the “MIC NaPT (with 0.5 ppm Cu)” value ([6]; TSB with 0.5 ppm Cu (II), 5 days) was 16 ppm and the MIC ([6]; TSB, incubated 5 days, single agent (NaPT without Cu)) was 64 ppm. The “MIC NaPT” value [7] was 4 ppm and the “MIC Pyrithione” value [8] was 128 ppm.
